From patent US20250326839A1, “TREATMENT OF DISEASES RELATED TO COLONY-STIMULATING FACTOR 1 RECEPTOR DYSFUNCTION USING TREM2 AGONISTS” (Vigil Neuroscience, Inc., priority 2020, published 2025)

System: human monocyte-derived macrophages (hMDMs)
Assay: Example 2E: CSF1R inhibition by PLX5622, confluence and morphology (Incucyte)
Type: cell-based
Settings: PLX5622 1 μM relative to vehicle alone
Experimental: PBMCs were isolated from fresh, whole blood from human donors. CD14+ monocytes were isolated using positive magnetic selection (Miltenyi). Cells were plated in UpCell® low-adhesion plates and incubated in culture media with 50 ng/mL CSF1 for 48 hours. After 48 hours, cells were non-enzymatically harvested and plated at 25,000 cells per well in cell culture plates coated with 10 μg/mL of either Ab-3 or a matching isotype control. PLX5622 was immediately added to the cultures to 1 μM, and plates were incubated in a humidified incubator at 37 C, 5% CO2 for an additional 96 hours. During incubation, cells were monitored every two hours using an Incucyte S3® analyzer (2 fields of view per well, imaged at 10×). Confluence was measured using built in S3 software, while area and eccentricity (cell shape) were measured using the built in “Cell By Cell” analysis software. Significance was determined by Student's T-test, two-tailed in Graphpad Prism.

COc1ncc(F)cc1CNc1ccc(Cc2c[nH]c3ncc(C)cc23)c(F)n1 [PLX5622, reference compound]
confluence (FIG. 5): significant reduction in confluence
cells with “high area, high eccentricity” (ramified) (FIG. 6): significant reduction in cells with “high area, high eccentricity”
